Laboratory results as given in patent US5332731A, “Cephalosporin derivatives” (Meiji Seika Kaisha, Ltd., priority 1989, dated 1994).
In brackets after ≈: the same amount, converted by molar mass.

How the values were obtained:
Assay in all cases: antibacterial activity, MIC by standard serial dilution method
Assay type in all cases: cell-based
Proteus vulgaris GN76 = tested on: Proteus vulgaris GN76
Source text: (§1) Antibacterial activity of Compounds Nos. 1, 3, 5, 7, 9, 11, 13, 15, 17, 19, 21, 23, 25, 27, 29, 31, 33, 35 and 37 indentified hereinbefore which are the particular examples of the new cephalosporin derivative of general formula (I) according to this invention and which are in the form of the free carboxylic acid was estimated by determining the minimum inhibitory concentrations (MIC., μg/ml) of these compounds against a variety of bacteria according to a standard serial dilution method.

[1] = tested on: Proteus vulgaris GN76/C-1
Source text: as §1

[2] = tested on: Enterobacter cloacae GN7471
Source text: as §1

[3] = tested on: Enterobacter cloacae G-0008; settings: G0008
Source text: as §1

Escherichia coli 255 = tested on: Escherichia coli 255
Source text: as §1

[4] = tested on: Entrobacter faecalis W-73
Source text: as §1

[5] = tested on: Escherichia coli NIHJ JC-2; settings: NIHJJC2
Source text: as §1

[6] = tested on: Escherichia coli W3630 RGN823; settings: W3630RGN823
Source text: as §1

Marganella morganii 1510 = tested on: Marganella morganii 1510
Source text: as §1

Escherichia coli 255/S-1 = settings: 255/S1
Source text: as §1

[7] = tested on: Enterobacter hirae ATCC8043
Source text: as §1

[8] = tested on: Staphylococcus epidermidis ATCC14990
Source text: as §1

[9] = tested on: Klebsiella pneumoniae PCI602
Source text: as §1

Escherichia coli GN206 = tested on: Escherichia coli GN206
Source text: as §1

[10] = tested on: Marganella morganii 1510/S-1
Source text: as §1

[11] = tested on: Staphylococcus aureus 209P JC-1
Source text: as §1

[12] = tested on: Pseudomonas aeruginosa GN10362
Source text: as §1

[13] = tested on: Citrobacter freundii GN346/16
Source text: as §1

[14] = tested on: Serratia marcescens No. 1
Source text: as §1

[15] = tested on: Klebsiella pneumoniae GN69
Source text: as §1

[16] = tested on: Serratia marcescens GN10857
Source text: as §1

[17] = tested on: Citrobacter freundii GN346
Source text: as §1

Row | Structure (SMILES) | MIC (Proteus vulgaris GN76) | MIC [1] | MIC [2] | MIC [3] | MIC (Escherichia coli 255) | MIC [4] | MIC [5] | MIC [6] | MIC (Marganella morganii 1510) | MIC (Escherichia coli 255/S-1) | MIC [7] | MIC [8] | MIC [9] | MIC (Escherichia coli GN206) | MIC [10] | MIC [11] | MIC [12] | MIC [13] | MIC [14] | MIC [15] | other results
1 | CO/N=C(\C(=O)NC1C(=O)N2C(C(=O)O)=C(SCC3CCOCC3)CS[C@H]12)c1csc(N)n1 (stereo partly shown) [Compound No. 31, 7-[(Z)-2-(2-aminothiazol-4-yl)-2-methoxyiminoacetamido]-3-(tetrahydropyran-4-yl)methylthio-3-cephem-4-carboxylic acid] | 0.78 µg/mL (≈ 1.52 µM) | 12.5 µg/mL (≈ 24.3 µM) | 50 µg/mL (≈ 97.3 µM) | 1.56 µg/mL (≈ 3.04 µM) | 25 µg/mL (≈ 48.7 µM) | > 100 µg/mL | 1.56 µg/mL (≈ 3.04 µM) | 1.56 µg/mL (≈ 3.04 µM) | 100 µg/mL (≈ 195 µM) | 1.56 µg/mL (≈ 3.04 µM) | > 100 µg/mL | 1.56 µg/mL (≈ 3.04 µM) | 1.56 µg/mL (≈ 3.04 µM) | 6.25 µg/mL (≈ 12.2 µM) | 0.78 µg/mL (≈ 1.52 µM) | 1.56 µg/mL (≈ 3.04 µM) | 100 µg/mL (≈ 195 µM) | 3.13 µg/mL (≈ 6.09 µM) | 3.13 µg/mL (≈ 6.09 µM) | 0.78 µg/mL (≈ 1.52 µM) | MIC [16]: 25 µg/mL (≈ 48.7 µM); MIC [17]: > 100 µg/mL
2 | Nc1nc(/C(=N/O)C(=O)NC2C(=O)N3C(C(=O)O)=C(SCC4CCCO4)CS[C@H]23)cs1 (stereo partly shown) [Compound No. 11, 7-[(Z)-2-(2-aminothiazol-4-yl)-2-hydroxyiminoacetamido]-3-tetrahydrofurfurylthio-3-cephem-4-carboxylic acid] | 0.78 µg/mL (≈ 1.61 µM) | 6.75 µg/mL (≈ 13.9 µM) | 50 µg/mL (≈ 103 µM) | 1.56 µg/mL (≈ 3.21 µM) | 50 µg/mL (≈ 103 µM) | 6.25 µg/mL (≈ 12.9 µM) | 1.56 µg/mL (≈ 3.21 µM) | 1.56 µg/mL (≈ 3.21 µM) | 50 µg/mL (≈ 103 µM) | 0.78 µg/mL (≈ 1.61 µM) | 6.25 µg/mL (≈ 12.9 µM) | 0.2 µg/mL (≈ 0.412 µM) | 0.78 µg/mL (≈ 1.61 µM) | 12.5 µg/mL (≈ 25.7 µM) | 0.39 µg/mL (≈ 0.803 µM) | 0.2 µg/mL (≈ 0.412 µM) | > 100 µg/mL | 6.25 µg/mL (≈ 12.9 µM) | 1.56 µg/mL (≈ 3.21 µM) | 0.78 µg/mL (≈ 1.61 µM) | MIC [16]: > 100 µg/mL; MIC [17]: > 100 µg/mL
3 | CO/N=C(\C(=O)NC1C(=O)N2C(C(=O)O)=C(SCC3CCOC3)CS[C@H]12)c1csc(N)n1 (stereo partly shown) [Compound No. 27, 7-[(Z)-2-(2-aminothiazol-4-yl)-2-methoxyiminoacetamido]-3-(tetrahydrofuran-3-yl)methylthio-3-cephem-4-carboxylic acid] | 0.2 µg/mL (≈ 0.4 µM) | 6.25 µg/mL (≈ 12.5 µM) | 50 µg/mL (≈ 100 µM) | 0.78 µg/mL (≈ 1.56 µM) | 50 µg/mL (≈ 100 µM) | 100 µg/mL (≈ 200 µM) | 0.78 µg/mL (≈ 1.56 µM) | 0.78 µg/mL (≈ 1.56 µM) | 25 µg/mL (≈ 50 µM) | 0.78 µg/mL (≈ 1.56 µM) | > 100 µg/mL | 0.78 µg/mL (≈ 1.56 µM) | 0.39 µg/mL (≈ 0.781 µM) | 6.25 µg/mL (≈ 12.5 µM) | 0.39 µg/mL (≈ 0.781 µM) | 1.56 µg/mL (≈ 3.12 µM) | > 100 µg/mL | 3.13 µg/mL (≈ 6.27 µM) | 3.13 µg/mL (≈ 6.27 µM) | 0.2 µg/mL (≈ 0.4 µM) | MIC [16]: 50 µg/mL (≈ 100 µM); MIC [17]: > 100 µg/mL
4 | Nc1nc(/C(=N/O)C(=O)NC2C(=O)N3C(C(=O)O)=C(SC4COCOC4)CS[C@H]23)cs1 (stereo partly shown) [Compound No. 21, 7 - [(Z) -2-(2-aminothiazol-4-yl) -2-hydroxyiminoacetamido]-3-(1,3-dioxan-5-yl)thio-3-cephem-4-carboxylic acid] | 0.78 µg/mL (≈ 1.6 µM) | 12.5 µg/mL (≈ 25.6 µM) | 50 µg/mL (≈ 103 µM) | 0.78 µg/mL (≈ 1.6 µM) | 25 µg/mL (≈ 51.3 µM) | 12.5 µg/mL (≈ 25.6 µM) | 0.2 µg/mL (≈ 0.41 µM) | 3.13 µg/mL (≈ 6.42 µM) | 12.5 µg/mL (≈ 25.6 µM) | 0.2 µg/mL (≈ 0.41 µM) | 3.13 µg/mL (≈ 6.42 µM) | 0.2 µg/mL (≈ 0.41 µM) | 0.2 µg/mL (≈ 0.41 µM) | 6.25 µg/mL (≈ 12.8 µM) | 0.1 µg/mL (≈ 0.205 µM) | 0.2 µg/mL (≈ 0.41 µM) | > 100 µg/mL | 3.13 µg/mL (≈ 6.42 µM) | 3.13 µg/mL (≈ 6.42 µM) | 0.2 µg/mL (≈ 0.41 µM) | MIC [16]: > 100 µg/mL; MIC [17]: > 100 µg/mL
5 | Nc1nc(/C(=N/O)C(=O)NC2C(=O)N3C(C(=O)O)=C(SC4CCOCC4)CS[C@H]23)cs1 (stereo partly shown) [Compound No. 15, 7-[(Z)-2-(2-aminothiazol-4-yl) -2-hydroxyiminoacetamido]-3-(tetrahydropyran-4-yl)thio-3-cephem-4-carboxylic acid] | 1.56 µg/mL (≈ 3.21 µM) | 6.25 µg/mL (≈ 12.9 µM) | 100 µg/mL (≈ 206 µM) | 1.56 µg/mL (≈ 3.21 µM) | 50 µg/mL (≈ 103 µM) | 1.56 µg/mL (≈ 3.21 µM) | 0.78 µg/mL (≈ 1.61 µM) | 12.5 µg/mL (≈ 25.7 µM) | 50 µg/mL (≈ 103 µM) | 0.39 µg/mL (≈ 0.803 µM) | 6.25 µg/mL (≈ 12.9 µM) | 0.2 µg/mL (≈ 0.412 µM) | 0.39 µg/mL (≈ 0.803 µM) | 12.5 µg/mL (≈ 25.7 µM) | 0.2 µg/mL (≈ 0.412 µM) | 0.2 µg/mL (≈ 0.412 µM) | > 100 µg/mL | 6.25 µg/mL (≈ 12.9 µM) | 6.25 µg/mL (≈ 12.9 µM) | 0.78 µg/mL (≈ 1.61 µM) | MIC [16]: > 100 µg/mL; MIC [17]: > 100 µg/mL
6 | CO/N=C(\C(=O)NC1C(=O)N2C(C(=O)O)=C(SCC3CCOC(C)(C)O3)CS[C@H]12)c1csc(N)n1 (stereo partly shown) [Compound No. 9, 7-[(Z)-2-(2-aminothiazol-4-yl)-2-methoxyiminoacetamido]-3-(2,2-dimethyl-1,3-dioxan-4-yl)methylthio-3-cephem-4-carboxylic acid] | 0.78 µg/mL (≈ 1.43 µM) | 3.13 µg/mL (≈ 5.76 µM) | 50 µg/mL (≈ 92 µM) | 3.13 µg/mL (≈ 5.76 µM) | 100 µg/mL (≈ 184 µM) | 100 µg/mL (≈ 184 µM) | 3.13 µg/mL (≈ 5.76 µM) | 1.56 µg/mL (≈ 2.87 µM) | 100 µg/mL (≈ 184 µM) | 6.25 µg/mL (≈ 11.5 µM) | 25 µg/mL (≈ 46 µM) | 1.56 µg/mL (≈ 2.87 µM) | 3.13 µg/mL (≈ 5.76 µM) | 12.5 µg/mL (≈ 23 µM) | 1.56 µg/mL (≈ 2.87 µM) | 1.56 µg/mL (≈ 2.87 µM) | > 100 µg/mL | 6.25 µg/mL (≈ 11.5 µM) | 3.13 µg/mL (≈ 5.76 µM) | 1.56 µg/mL (≈ 2.87 µM) | MIC [16]: 50 µg/mL (≈ 92 µM); MIC [17]: > 100 µg/mL
7 | CO/N=C(\C(=O)NC1C(=O)N2C(C(=O)O)=C(SCC3COC(C)(C)O3)CS[C@H]12)c1csc(N)n1 (stereo partly shown) [Compound No. 5, 7-[(Z)-2-(2-aminothiazol-4-yl)-2-methoxyiminoacetamido]-3-(2,2-dimethyl-1,3-dioxolan-4-yl)methylthio-3-cephem-4-carboxylic acid] | 0.39 µg/mL (≈ 0.736 µM) | 1.56 µg/mL (≈ 2.95 µM) | 50 µg/mL (≈ 94.4 µM) | 3.13 µg/mL (≈ 5.91 µM) | 100 µg/mL (≈ 189 µM) | 50 µg/mL (≈ 94.4 µM) | 1.56 µg/mL (≈ 2.95 µM) | 1.56 µg/mL (≈ 2.95 µM) | 100 µg/mL (≈ 189 µM) | 3.13 µg/mL (≈ 5.91 µM) | 25 µg/mL (≈ 47.2 µM) | 1.56 µg/mL (≈ 2.95 µM) | 1.56 µg/mL (≈ 2.95 µM) | 12.5 µg/mL (≈ 23.6 µM) | 0.78 µg/mL (≈ 1.47 µM) | 1.56 µg/mL (≈ 2.95 µM) | > 100 µg/mL | 6.25 µg/mL (≈ 11.8 µM) | 1.56 µg/mL (≈ 2.95 µM) | 0.78 µg/mL (≈ 1.47 µM) | MIC [16]: 50 µg/mL (≈ 94.4 µM); MIC [17]: > 100 µg/mL
